Results as given in patent US10570129B2 (Zoetis Services LLC, priority 2015, dated 2020).

Assays:
Haemonchus contortus L3 = test: microbe, parasite or virus in culture; type: cell-based; conditions: Haemonchus contortus, 96 h, read-out: HcL3 Minimal Effective Concentration (MEC)
D. immitis microfilariae = test: Dirofilaria immitis, microfilariae (DiMF) in vitro motility assay; type: cell-based; conditions: Dirofilaria immitis, 72 h, read-out: DiMF minimally effective dose (MEC)
[1] = system: Trichostrongylus colubriformis; test: Jird efficacy model; type: in vivo; conditions: Trichostrongylus colubriformis, sc, 96 h, read-out: Jird % (percentage efficacy)

Row | Compound | minimal effective concentration (Haemonchus contortus L3) | minimal effective concentration (D. immitis microfilariae) | inhibition in vivo at 10 mg/kg [1]
1 | O=C(NCc1ccnc(Cl)c1)n1c2c(c3cc(Br)ccc31)CN(C/C=C/c1ccc(Cl)cc1)CC2 [Example 185, (E)-8-bromo-2-(3-(4-chlorophenyl)allyl)-N-((2-chloropyridin-4-yl)methyl)-1,2,3,4-tetrahydro-5H-pyrido[4,3-b]indole-5-carboxamide] | 0.7 µM | 7.7 µM | 100%
2 | N#Cc1ccc(/C=C/CN2CCc3c(c4cc(OC(F)(F)F)ccc4n3C(=O)NCc3ccnc(Cl)c3)C2)cc1 [Example 390, (E)-N-((2-chloropyridin-4-yl)methyl)-2-(3-(4-cyanophenyl)allyl)-8-(trifluoromethoxy)-1,2,3,4-tetrahydro-5H-pyrido[4,3-b]indole-5-carboxamide] | 0.5 µM | 18.2 µM | 100%
3 | O=C(NCc1ccnc(F)c1)n1c2c(c3cc4c(cc31)COC4)CN(C/C=C/c1ccc(Cl)cc1)CC2 [Example 483, (E)-8-(3-(4-chlorophenyl)allyl)-N-((2-fluoropyridin-4-yl)methyl)-1,3,6,7,8,9-hexahydro-5H-furo[3,4-f]pyrido[4,3-b]indole-5-carboxamide] | 0.5 µM | 3.3 µM | 100%
4 | N#Cc1ccc2c3c(n(C(=O)NCc4ccnc(Br)c4)c2c1)CCN(C/C=C/c1ccc(Cl)c(F)c1)C3 [Example 41, (E)-N-((2-bromopyridin-4-yl)methyl)-2-(3-(4-chloro-3-fluorophenyl)allyl)-7-cyano-1,2,3,4-tetrahydro-5H-pyrido[4,3-b]indole-5-carboxamide] | 0.3 µM | 5.7 µM | 100%
5 | O=C(NCc1ccnc(Cl)c1)n1c2c(c3c(Cl)c(F)ccc31)CN(C/C=C/c1ccc(F)cc1)CC2 [Example 307, (E)-9-chloro-N-((2-chloropyridin-4-yl)methyl)-8-fluoro-2-(3-(4-fluorophenyl)allyl)-1,2,3,4-tetrahydro-5H-pyrido[4,3-b]indole-5-carboxamide] | 0.5 µM | 3.3 µM | 100%
6 | O=C(NCc1cnc(Cl)s1)n1c2c(c3cc4c(cc31)COC4)CN(C/C=C/c1ccc(Cl)cc1)CC2 [Example 489, (E)-8-(3-(4-chlorophenyl)allyl)-N-((2-chlorothiazol-5-yl)methyl)-1,3,6,7,8,9-hexahydro-5H-furo[3,4-f]pyrido[4,3-b]indole-5-carboxamide] | 3.3 µM | 3.3 µM | 100%
7 | O=C(NCc1ccnc(Cl)c1)n1c2c(c3cc(Cl)c(Cl)cc31)CN(C/C=C/c1ccc(F)cc1)CC2 [Example 282, (E)-7,8-dichloro-N-((2-chloropyridin-4-yl)methyl)-2-(3-(4-fluorophenyl)allyl)-1,2,3,4-tetrahydro-5H-pyrido[4,3-b]indole-5-carboxamide] | 0.3 µM | 3.3 µM | 100%
8 | N#Cc1ccc2c3c(n(C(=O)NCc4ccnc(Cl)c4)c2c1)CCN(C/C=C/c1cccc(F)c1F)C3 [Example 32, (E)-N-((2-chloropyridin-4-yl)methyl)-7-cyano-2-(3-(2,3-difluorophenyl)allyl)-1,2,3,4-tetrahydro-5H-pyrido[4,3-b]indole-5-carboxamide] | 1.8 µM | 18.2 µM | 100%
9 | O=C(NCc1ccnc(Cl)c1)n1c2c(c3cc4c(cc31)COC4)CN(C/C=C/c1ccc(F)cc1)CC2 [Example 481, (E)-N-((2-chloropyridin-4-yl)methyl)-8-(3-(4-fluorophenyl)allyl)-1,3,6,7,8,9-hexahydro-5H-furo[3,4-f]pyrido[4,3-b]indole-5-carboxamide] | 0.3 µM | 3.3 µM | 99%
10 | O=C(NCc1ccnc(F)c1)n1c2c(c3cc(C(F)(F)F)ccc31)CN(C/C=C/c1ccc(Cl)cc1)CC2 [Example 421, (E)-2-(3-(4-chlorophenyl)allyl)-N-((2-fluoropyridin-4-yl)methyl)-8-(trifluoromethyl)-1,2,3,4-tetrahydro-5H-pyrido[4,3-b]indole-5-carboxamide] | 3.3 µM | 12.7 µM | 100%
11 | N#Cc1ccc2c(c1)c1c(n2C(=O)NCc2ccnc(F)c2)CCN(C/C=C/c2ccc(F)cc2)C1 [Example 123, (E)-8-cyano-2-(3-(4-fluorophenyl)allyl)-N-((2-fluoropyridin-4-yl)methyl)-1,2,3,4-tetrahydro-5H-pyrido[4,3-b]indole-5-carboxamide] | 0.3 µM | 10 µM | 100%
12 | O=C(NCc1ccnc(F)c1)n1c2c(c3cc(F)c(Cl)cc31)CN(C/C=C/c1ccc(Cl)cc1)CC2 [Example 317, (E)-7-chloro-2-(3-(4-chlorophenyl)allyl)-8-fluoro-N-((2-fluoropyridin-4-yl)methyl)-1,2,3,4-tetrahydro-5H-pyrido[4,3-b]indole-5-carboxamide] | 1 µM | 18.2 µM | 100%
13 | N#Cc1ccc(/C=C/CN2CCc3c(c4ccc(C(F)(F)F)cc4n3C(=O)NCc3ccnc(Cl)c3)C2)cc1 [Example 155, (E)-N-((2-chloropyridin-4-yl)methyl)-2-(3-(4-cyanophenyl)allyl)-7-(trifluoromethyl)-1,2,3,4-tetrahydro-5H-pyrido[4,3-b]indole-5-carboxamide] | 1 µM | 22.6 µM | 100%
14 | O=C(NCc1ccnc(F)c1)n1c2c(c3ccc(C(F)(F)F)cc31)CN(C/C=C/c1ccc(Cl)cc1)CC2 [Example 165, (E)-2-(3-(4-chlorophenyl)allyl)-N-((2-fluoropyridin-4-yl)methyl)-7-(trifluoromethyl)-1,2,3,4-tetrahydro-5H-pyrido[4,3-b]indole-5-carboxamide] | 3.3 µM | 3.3 µM | 100%
15 | N#Cc1ccc(/C=C/CN2CCc3c(c4ccc(C(F)(F)F)cc4n3C(=O)NCc3ccnc(F)c3)C2)cc1 [Example 164, (E)-2-(3-(4-cyanophenyl)allyl)-N-((2-fluoropyridin-4-yl)methyl)-7-(trifluoromethyl)-1,2,3,4-tetrahydro-5H-pyrido[4,3-b]indole-5-carboxamide] | 3.3 µM | 10 µM | 100%
16 | N#Cc1ccc2c3c(n(C(=O)NCc4ccnc(Cl)c4)c2c1)CCN(C/C=C/c1ccc(Cl)c(F)c1)C3 [Example 2, (E)-2-(3-(4-chloro-3-fluorophenyl)allyl)-N-((2-chloropyridin-4-yl)methyl)-7-cyano-1,2,3,4-tetrahydro-5H-pyrido[4,3-b]indole-5-carboxamide] | 1.6 µM | 4.8 µM | 100%
17 | O=C(NCc1ccnc(F)c1)n1c2c(c3ccc(OC(F)(F)F)cc31)CN(C/C=C/c1ccc(Cl)cc1)CC2 [Example 379, (E)-2-(3-(4-chlorophenyl)allyl)-N-((2-fluoropyridin-4-yl)methyl)-7-(trifluoromethoxy)-1,2,3,4-tetrahydro-5H-pyrido[4,3-b]indole-5-carboxamide] | 1 µM | 5.7 µM | 100%
18 | N#Cc1ccc2c(c1)c1c(n2C(=O)NCc2ccnc(C(F)(F)F)c2)CCN(C/C=C/c2ccc(Cl)cc2F)C1 [Example 128, (E)-2-(3-(4-chloro-2-fluorophenyl)allyl)-8-cyano-N-((2-(trifluoromethyl)pyridin-4-yl)methyl)-1,2,3,4-tetrahydro-5H-pyrido[4,3-b]indole-5-carboxamide] | 0.1 µM | 0.7 µM | 100%
19 | N#Cc1ccc(/C=C/CN2CCc3c(c4cc(F)c(OC(F)(F)F)cc4n3C(=O)NCc3ccnc(Cl)c3)C2)cc1 [Example 470, (E)-N-((2-chloropyridin-4-yl)methyl)-2-(3-(4-cyanophenyl)allyl)-8-fluoro-7-(trifluoromethoxy)-1,2,3,4-tetrahydro-5H-pyrido[4,3-b]indole-5-carboxamide] | 1 µM | 13.5 µM | 100%
20 | O=C(NCc1ccnc(Cl)c1)n1c2c(c3cc(Cl)ccc31)CN(C/C=C/c1ccc(F)cc1F)CC2 [Example 238, (E)-8-chloro-N-((2-chloropyridin-4-yl)methyl)-2-(3-(2,4-difluorophenyl)allyl)-1,2,3,4-tetrahydro-5H-pyrido[4,3-b]indole-5-carboxamide] | 1 µM | 5.7 µM | 100%
21 | N#Cc1ccc2c(c1)c1c(n2C(=O)NCc2ccnc(F)c2)CCN(C/C=C/c2ccc(Br)cc2F)C1 [Example 102, (E)-2-(3-(4-bromo-2-fluorophenyl)allyl)-8-cyano-N-((2-fluoropyridin-4-yl)methyl)-1,2,3,4-tetrahydro-5H-pyrido[4,3-b]indole-5-carboxamide] | 0.3 µM | 3.3 µM | 97%
22 | N#Cc1ccc2c3c(n(C(=O)NCc4ccnc(Cl)c4)c2c1)CCN(C/C=C/c1cc(F)c(Cl)c(F)c1)C3 [Example 1, (E)-2-(3-(4-chloro-3,5-difluorophenyl)allyl)-N-((2-chloropyridin-4-yl)methyl)-7-cyano-1,2,3,4-tetrahydro-5H-pyrido[4,3-b]indole-5-carboxamide] | 0.2 µM | 0.2 µM | 100%
